Data from article PMC9898036, “VIP152 is a selective CDK9 inhibitor with pre-clinical in vitro and in vivo efficacy in chronic lymphocytic leukemia” (Leukemia, 2022).

Key:
Type in all cases: binding
SRC = SRC (Homo sapiens, UniProt P12931); assay: KINOMEscan: SRC; details: 100 nM, read-out: Percent Control
TXK = TXK (Homo sapiens, UniProt P42681); assay: KINOMEscan: TXK; details: 100 nM, read-out: Percent Control
ASK1 = ASK1 (Homo sapiens, UniProt Q99683); assay: KINOMEscan: ASK1; details: 1000 nM, read-out: Percent Control
Glucocorticoid = Glucocorticoid (Homo sapiens, UniProt P04150); assay: Eurofins Diversity Panel; details: hum, Conc. 10 μM
STK35 = STK35 (Homo sapiens, UniProt Q8TDR2); assay: KINOMEscan: STK35; details: 100 nM, read-out: Percent Control
CAMKK2 = CAMKK2 (Homo sapiens, UniProt Q96RR4); assay: KINOMEscan: CAMKK2; details: 1000 nM, read-out: Percent Control
CAMKK2, sequence (Q96RR4 whole entry): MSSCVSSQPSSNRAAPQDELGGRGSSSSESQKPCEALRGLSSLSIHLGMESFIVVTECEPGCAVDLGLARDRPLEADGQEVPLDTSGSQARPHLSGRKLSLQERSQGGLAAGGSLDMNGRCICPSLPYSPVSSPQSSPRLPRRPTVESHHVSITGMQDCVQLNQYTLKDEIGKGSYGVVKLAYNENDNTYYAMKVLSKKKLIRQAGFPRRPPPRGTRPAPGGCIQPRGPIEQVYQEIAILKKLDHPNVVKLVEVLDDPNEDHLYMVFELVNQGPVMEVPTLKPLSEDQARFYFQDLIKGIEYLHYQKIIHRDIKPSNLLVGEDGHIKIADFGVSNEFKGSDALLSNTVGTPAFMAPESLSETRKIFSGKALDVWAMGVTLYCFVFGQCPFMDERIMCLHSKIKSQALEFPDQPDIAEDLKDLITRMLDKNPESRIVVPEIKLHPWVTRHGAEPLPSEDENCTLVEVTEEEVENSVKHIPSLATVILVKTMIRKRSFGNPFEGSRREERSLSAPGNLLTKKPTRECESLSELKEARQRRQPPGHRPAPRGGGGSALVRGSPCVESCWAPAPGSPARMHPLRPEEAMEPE

CAMK2D = CAMK2D (Homo sapiens, UniProt Q13557); assay: KINOMEscan: CAMK2D; details: 1000 nM, read-out: Percent Control
CAMK2D, sequence (Q13557 whole entry): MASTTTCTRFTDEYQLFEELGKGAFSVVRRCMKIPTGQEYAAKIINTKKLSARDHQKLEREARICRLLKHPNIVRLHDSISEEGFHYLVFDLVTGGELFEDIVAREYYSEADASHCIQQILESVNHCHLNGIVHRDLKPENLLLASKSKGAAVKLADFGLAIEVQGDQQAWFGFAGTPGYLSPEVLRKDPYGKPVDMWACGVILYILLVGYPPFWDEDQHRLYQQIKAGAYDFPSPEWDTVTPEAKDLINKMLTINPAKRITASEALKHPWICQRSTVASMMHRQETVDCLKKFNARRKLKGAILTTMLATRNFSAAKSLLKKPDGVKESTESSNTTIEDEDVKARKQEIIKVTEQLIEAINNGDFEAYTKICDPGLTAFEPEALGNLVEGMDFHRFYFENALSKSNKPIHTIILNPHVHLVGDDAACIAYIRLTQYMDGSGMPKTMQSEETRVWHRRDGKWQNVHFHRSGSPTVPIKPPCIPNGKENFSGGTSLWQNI

SRPK1 = SRPK1 (Homo sapiens, UniProt Q96SB4); assay: KINOMEscan: SRPK1; details: 100 nM, read-out: Percent Control
SRPK1, sequence (Q96SB4 whole entry): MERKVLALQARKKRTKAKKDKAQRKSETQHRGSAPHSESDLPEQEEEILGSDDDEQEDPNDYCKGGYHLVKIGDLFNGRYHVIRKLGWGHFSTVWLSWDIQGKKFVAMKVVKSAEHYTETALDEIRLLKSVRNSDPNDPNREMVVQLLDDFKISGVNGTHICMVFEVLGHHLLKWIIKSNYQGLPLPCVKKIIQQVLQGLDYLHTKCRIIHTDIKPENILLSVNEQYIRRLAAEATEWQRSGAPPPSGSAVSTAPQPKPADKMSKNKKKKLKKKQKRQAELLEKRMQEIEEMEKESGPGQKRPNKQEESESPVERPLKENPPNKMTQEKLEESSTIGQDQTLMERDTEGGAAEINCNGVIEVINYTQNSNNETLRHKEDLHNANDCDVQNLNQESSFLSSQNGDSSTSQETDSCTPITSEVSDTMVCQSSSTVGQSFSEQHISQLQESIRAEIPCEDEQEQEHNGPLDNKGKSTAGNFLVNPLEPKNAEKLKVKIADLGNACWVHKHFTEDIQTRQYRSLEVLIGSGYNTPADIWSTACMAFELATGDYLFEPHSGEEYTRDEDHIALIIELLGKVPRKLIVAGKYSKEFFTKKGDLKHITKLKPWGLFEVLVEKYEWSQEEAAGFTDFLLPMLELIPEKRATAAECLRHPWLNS

Glutamate, Kainate = assay: Eurofins Diversity Panel; details: rat, Conc. 10 μM
KIT(V559D,T670I) = KIT(V559D,T670I) (Homo sapiens, UniProt P10721, T670I/V559D); assay: KINOMEscan: KIT(V559D,T670I); details: 1000 nM, read-out: Percent Control
ACVR1 = ACVR1 (Homo sapiens, UniProt Q04771); assay: KINOMEscan: ACVR1; details: 1000 nM, read-out: Percent Control
ACVR1, sequence (Q04771 21-509): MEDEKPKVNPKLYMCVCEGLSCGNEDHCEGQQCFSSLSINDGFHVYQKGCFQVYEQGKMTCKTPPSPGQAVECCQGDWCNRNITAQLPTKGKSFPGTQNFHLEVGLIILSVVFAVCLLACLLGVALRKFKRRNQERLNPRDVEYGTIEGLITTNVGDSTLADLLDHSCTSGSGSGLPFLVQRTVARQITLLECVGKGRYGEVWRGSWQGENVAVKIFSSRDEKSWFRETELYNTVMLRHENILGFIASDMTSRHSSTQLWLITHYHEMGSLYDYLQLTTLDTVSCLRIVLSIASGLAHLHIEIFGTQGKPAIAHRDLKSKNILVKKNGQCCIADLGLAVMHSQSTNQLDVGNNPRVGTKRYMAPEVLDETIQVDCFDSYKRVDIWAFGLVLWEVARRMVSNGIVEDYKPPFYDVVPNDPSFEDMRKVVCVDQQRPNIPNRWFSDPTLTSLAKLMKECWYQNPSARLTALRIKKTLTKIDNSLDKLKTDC

ERK1 = ERK1 (Homo sapiens, UniProt P27361); assay: KINOMEscan: ERK1; details: 1000 nM, read-out: Percent Control
Purinergic P2Y = assay: Eurofins Diversity Panel; details: rat, Conc. 10 μM
CASK = CASK (Homo sapiens, UniProt O14936); assay: KINOMEscan: CASK; details: 1000 nM, read-out: Percent Control
CASK, sequence (O14936 whole entry): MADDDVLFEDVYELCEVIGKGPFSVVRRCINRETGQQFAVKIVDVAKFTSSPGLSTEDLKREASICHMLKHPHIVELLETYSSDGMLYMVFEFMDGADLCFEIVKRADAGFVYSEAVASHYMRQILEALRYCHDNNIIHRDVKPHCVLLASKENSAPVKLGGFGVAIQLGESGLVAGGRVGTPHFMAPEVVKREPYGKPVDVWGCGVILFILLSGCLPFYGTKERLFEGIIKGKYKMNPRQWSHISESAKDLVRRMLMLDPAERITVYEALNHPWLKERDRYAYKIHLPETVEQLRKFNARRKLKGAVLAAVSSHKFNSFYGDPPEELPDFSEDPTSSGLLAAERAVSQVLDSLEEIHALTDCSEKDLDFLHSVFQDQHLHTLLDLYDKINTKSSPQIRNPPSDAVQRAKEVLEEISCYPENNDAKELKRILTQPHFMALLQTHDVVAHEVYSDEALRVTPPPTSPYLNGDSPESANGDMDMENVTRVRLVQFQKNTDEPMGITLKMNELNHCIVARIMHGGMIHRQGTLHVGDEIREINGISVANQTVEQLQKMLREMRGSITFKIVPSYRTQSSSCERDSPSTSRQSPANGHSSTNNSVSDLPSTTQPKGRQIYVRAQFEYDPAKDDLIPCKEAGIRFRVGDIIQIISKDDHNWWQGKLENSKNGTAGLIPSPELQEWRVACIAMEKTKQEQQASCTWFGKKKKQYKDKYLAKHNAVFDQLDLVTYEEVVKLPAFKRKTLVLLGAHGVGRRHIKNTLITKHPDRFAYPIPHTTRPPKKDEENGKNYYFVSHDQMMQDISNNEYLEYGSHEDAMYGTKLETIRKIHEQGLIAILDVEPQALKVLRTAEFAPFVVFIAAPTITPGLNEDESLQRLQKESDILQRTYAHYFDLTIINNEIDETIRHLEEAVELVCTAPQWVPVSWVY

PFPK5(P.falciparum) = PFPK5(P.falciparum) (Plasmodium falciparum, UniProt P61075); assay: DiscoverX KINOMEscan kinase profiling: PFPK5(P.falciparum); details: PFPK5(P.falciparum) (Entrez MAL13P1.279); 100 nM; read-out: Percent Control
EPHA2 = EPHA2 (Homo sapiens, UniProt P29317); assay: KINOMEscan: EPHA2; details: 1000 nM, read-out: Percent Control
Phorbol Ester = assay: Eurofins Diversity Panel; details: mouse, Conc. 10 μM
ULK3 = ULK3 (Homo sapiens, UniProt Q6PHR2); assay: KINOMEscan: ULK3; details: 100 nM, read-out: Percent Control
TIE2 = TIE2 (Homo sapiens, UniProt Q02763); assay: KINOMEscan: TIE2; details: 100 nM, read-out: Percent Control
Prostanoid EP4 = Prostanoid EP4 (Homo sapiens, UniProt P35408); assay: Eurofins Diversity Panel; details: hum, Conc. 10 μM
TEC = TEC (Homo sapiens, UniProt P42680); assay: KINOMEscan: TEC; details: 100 nM, read-out: Percent Control
[1] = molecular target: RSK4(Kin.Dom.1-N-terminal) (Homo sapiens, UniProt Q9UK32); assay: KINOMEscan: RSK4(Kin.Dom.1-N-terminal); details: 100 nM, read-out: Percent Control
TBK1 = TBK1 (Homo sapiens, UniProt Q9UHD2); assay: KINOMEscan: TBK1; details: 100 nM, read-out: Percent Control
Adrenergic α1A = Adrenergic α1A (Rattus norvegicus, UniProt P43140); assay: Eurofins Diversity Panel; details: Conc. 10 μM
Adrenergic α1A, sequence (P43140 whole entry): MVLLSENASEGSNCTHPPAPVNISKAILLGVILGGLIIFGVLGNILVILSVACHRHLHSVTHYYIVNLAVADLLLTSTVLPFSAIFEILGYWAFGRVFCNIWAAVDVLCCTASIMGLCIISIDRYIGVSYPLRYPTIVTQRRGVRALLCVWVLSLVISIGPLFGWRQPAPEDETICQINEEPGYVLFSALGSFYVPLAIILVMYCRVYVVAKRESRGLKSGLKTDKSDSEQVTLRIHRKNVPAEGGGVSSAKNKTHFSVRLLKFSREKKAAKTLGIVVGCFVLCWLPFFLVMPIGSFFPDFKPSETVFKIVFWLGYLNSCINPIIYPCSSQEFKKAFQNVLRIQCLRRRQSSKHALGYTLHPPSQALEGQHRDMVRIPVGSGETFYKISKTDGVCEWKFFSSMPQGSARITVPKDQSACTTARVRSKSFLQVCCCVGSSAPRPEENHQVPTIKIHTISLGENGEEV

WNK4 = WNK4 (Homo sapiens, UniProt Q96J92); assay: KINOMEscan: WNK4; details: 100 nM, read-out: Percent Control
MST1R = MST1R (Homo sapiens, UniProt Q04912); assay: KINOMEscan: MST1R; details: 1000 nM, read-out: Percent Control
TGFBR1 = TGFBR1 (Homo sapiens, UniProt P36897); assay: KINOMEscan: TGFBR1; details: 100 nM, read-out: Percent Control
TGFBR1, sequence (P36897 34-503): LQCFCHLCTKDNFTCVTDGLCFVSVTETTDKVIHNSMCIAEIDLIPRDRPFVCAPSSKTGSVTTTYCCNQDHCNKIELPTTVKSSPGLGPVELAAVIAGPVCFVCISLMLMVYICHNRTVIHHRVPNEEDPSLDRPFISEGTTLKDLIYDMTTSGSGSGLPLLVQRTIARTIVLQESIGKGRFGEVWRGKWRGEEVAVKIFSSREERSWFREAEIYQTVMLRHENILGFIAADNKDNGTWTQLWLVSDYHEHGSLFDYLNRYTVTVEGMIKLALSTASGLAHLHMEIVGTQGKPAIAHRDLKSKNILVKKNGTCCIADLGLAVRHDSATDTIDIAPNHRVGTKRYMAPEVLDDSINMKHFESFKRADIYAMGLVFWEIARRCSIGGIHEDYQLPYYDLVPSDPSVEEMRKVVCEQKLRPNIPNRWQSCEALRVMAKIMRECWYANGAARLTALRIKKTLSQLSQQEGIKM

CDKL1 = CDKL1 (Homo sapiens, UniProt Q00532); assay: KINOMEscan: CDKL1; details: 1000 nM, read-out: Percent Control
CDKL1, sequence (Q00532 whole entry): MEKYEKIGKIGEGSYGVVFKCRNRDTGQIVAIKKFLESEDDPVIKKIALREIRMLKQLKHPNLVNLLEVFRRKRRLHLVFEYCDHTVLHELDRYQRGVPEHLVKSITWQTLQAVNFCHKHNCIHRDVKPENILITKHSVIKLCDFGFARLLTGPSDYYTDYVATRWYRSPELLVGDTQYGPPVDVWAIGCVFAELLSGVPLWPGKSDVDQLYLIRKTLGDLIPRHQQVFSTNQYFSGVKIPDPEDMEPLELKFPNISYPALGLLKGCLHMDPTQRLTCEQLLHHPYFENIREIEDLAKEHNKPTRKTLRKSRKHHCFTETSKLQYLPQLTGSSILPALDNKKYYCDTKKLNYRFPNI

Adrenergic α1B = Adrenergic α1B (Rattus norvegicus, UniProt P15823); assay: Eurofins Diversity Panel; details: Conc. 10 μM
[2] = molecular target: JAK1(JH1domain-catalytic) (Homo sapiens, UniProt P23458); assay: KINOMEscan: JAK1(JH1domain-catalytic); details: 1000 nM, read-out: Percent Control
JAK1(JH1domain-catalytic), sequence (P23458 875-1154 limits assumed): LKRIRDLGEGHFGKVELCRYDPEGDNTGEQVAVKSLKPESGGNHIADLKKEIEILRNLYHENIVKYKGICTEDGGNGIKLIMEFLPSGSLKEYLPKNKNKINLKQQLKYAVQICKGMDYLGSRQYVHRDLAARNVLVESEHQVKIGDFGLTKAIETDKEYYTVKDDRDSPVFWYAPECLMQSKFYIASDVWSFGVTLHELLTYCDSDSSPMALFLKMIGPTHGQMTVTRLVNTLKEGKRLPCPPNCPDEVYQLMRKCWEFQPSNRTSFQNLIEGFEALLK

COc1cc(F)ccc1-c1cc(Nc2cc(CS(C)(=N)=O)ccn2)ncc1F (stereo not drawn) [VIP152]
remaining binding at 0.1 µM (SRC): 100%
remaining binding at 0.1 µM (TXK): 100%
remaining binding at 1 µM (ASK1): 97%
inhibition at 10 µM (Glucocorticoid): 30%
remaining binding at 0.1 µM (STK35): 100%
remaining binding at 1 µM (CAMKK2): 16%
remaining binding at 1 µM (CAMK2D): 69%
remaining binding at 0.1 µM (SRPK1): 100%
% Inh. (Glutamate, Kainate): 13%
remaining binding at 1 µM (KIT(V559D,T670I)): 64%
remaining binding at 1 µM (ACVR1): 64%
remaining binding at 1 µM (ERK1): 82%
% Inh. (Purinergic P2Y): 8%
remaining binding at 1 µM (CASK): 95%
remaining binding at 0.1 µM (PFPK5(P.falciparum)): 100%
remaining binding at 1 µM (EPHA2): 97%
% Inh. (Phorbol Ester): 8%
remaining binding at 0.1 µM (ULK3): 96%
remaining binding at 0.1 µM (TIE2): 100%
inhibition at 10 µM (Prostanoid EP4): 24%
remaining binding at 0.1 µM (TEC): 100%
remaining binding at 0.1 µM [1]: 100%
remaining binding at 0.1 µM (TBK1): 62%
inhibition at 10 µM (Adrenergic α1A): 34%
remaining binding at 0.1 µM (WNK4): 100%
remaining binding at 1 µM (MST1R): 70%
remaining binding at 0.1 µM (TGFBR1): 100%
remaining binding at 1 µM (CDKL1): 63%
inhibition at 10 µM (Adrenergic α1B): 18%
remaining binding at 1 µM [2]: 96%
